Test results from US6074845A (priority 1999, dated 2000).
Ends that are not written are not given here.

Legend:
[1] = system: insulin-stimulated glycogen synthesis; details: activation of sensory nerves; cited from earlier work
[2] = system: ATP-sensitive potassium channel; details: rabbit mesenteric resistance arteries and rat basilar artery; cited from earlier work
NO-cGMP system = details: kidney, vascular EC, rabbit ventricular myocytes; cited from earlier work
[3] = system: rat vascular SMC and cardiomyocytes; details: cited from earlier work
[4] = system: vector transfected HEK293 cell membranes; assay: Adenylyl cyclase activity in vector transfected HEK293 cell membranes (control); type: biochemical, human
Procedure: (§1) Membrane-bound adenylyl cyclase activity was determined. Membranes [40-60 ug protein] were incubated in triplicate tubes in buffer containing 50 mM Tris-HCl, pH 7.4, 10 mM MgCl2, 1.2 mM ATP, 1.0 μCi [α^32P]ATP, 0.1 mM cAMP, 2.8 mM phosphoenolpyruvate and 5.2 μg/ml myokinase in a final volume of 100 μl for 20 min at 30° C. The reactions were stopped with 1 ml of a solution containing 0.28 mM cAMP, 0.33 mM ATP and 22,000 dpm of [^3 H]cAMP. [^32 P]cAMP was separated using sequential chromatography as the rate of conversion of [(α^32 P]ATP to [^32 P]cAMP on Dowex and alumina columns (33). Adenylyl cyclase activities were determined in the absence (basal) or presence of various concentrations of rat ADM or hαCGRP (1 pM to 1 μM). The effect of ADM (22-52), ADM (26-52) and hαCGRP(8-37), on ADM-mediatedactivation of adenylyl cyclase was also determined.
HEK293 cells transiently transfected with this clone responded to CGRP and ADM […] by stimulating adenylyl cyclase activity (60-80% over basal). This clone has been stably expressed in HEK293 cells using the LipofectAMINE procedure and analyzed for CGRP and ADM-mediated adenylyl cyclase activity. One of the positive clones (BECRLR #8) was fully characterized. […]

[5] = system: CRLR co-expressed with RAMP2; details: cited from earlier work
[6] = injected intravenously into rats; cited from earlier work
[7] = biological target: T1, BECRLR (bovine calcitonin receptor-like receptor) (Bos taurus, UniProt A6QP74); assay: Saturation / specific radioligand binding to BECRLR-293 membranes
T1 construct: amplify the open reading frame of the novel bovine CRLR cDNA; expressed in transfected cells; also transient transfection
Procedure: (§2) Cells from BECRLR-293 were scraped into ice-cold PBS and centrifuged for 10 min at 1000× g at 4° C. The pellet was resuspended in 10 mM Tris-HCl, pH 7.4, 10 mM Na-EDTA and homogenized using a Dounce ground glass homogenizer. The homogenate was centrifuged for 20 min at 12,000× g at 4° C. and the resultant membrane pellet was resuspended in 50 mM Tris-HCl, pH 7.4, 10 mM MgCl2 and recentrifuged. The final pellet was resuspended in 50 mM Tris-HCl, pH 7.4, 10 mM MgCl2 and assayed immediately.
Saturation binding experiments were carried out using membranes prepared from BECRLR-293 cells pretreated in the absence or presence of ADM. The incubation mixture contained various concentrations of [^125 I] ADM (5 to 120 pM) and 40-60 μg of membrane protein in a final volume of 500 ul. Nonspecific binding was determined in the presence of 1 μM r ADM. After incubating for 30 min at 25° C., the reaction mixture was rapidly diluted with cold 0.9% NaCl and bound and free ligands were separated by filtration on glass fiber filters. In competition binding studies, the membranes were incubated with increasing concentrations of r ADM or CGRP (1 pM-1 uM) and 150 pM of [^125 I] r ADM for 30 min. at 25° C.
HEK293 cells transiently transfected with this clone responded to CGRP and ADM […] by stimulating adenylyl cyclase activity (60-80% over basal). This clone has been stably expressed in HEK293 cells using the LipofectAMINE procedure and analyzed for CGRP and ADM-mediated adenylyl cyclase activity. One of the positive clones (BECRLR #8) was fully characterized. […] To investigate further the functional results described in this study, a binding study using [^125 I]rADM and [^125 I]CGRP was performed to identify the presence of binding sites for both peptides in BE-CRLR (#8) cell membranes. [^125 I] CGRP binding was very little and the affinity or number of binding sites was difficult to determine. […] The specificity of [^125 I] rADM binding to BE-CRLR membranes was investigated by analyzing the displacement of this radioligand binding by ADM and related peptides. […]

[8] = system: vascular SMC, and bovine EC; details: cited from earlier work
[9] = biological target: T1, BECRLR (bovine calcitonin receptor-like receptor); assay: Adenylyl cyclase activity (activation) in BECRLR-expressing HEK293 cells/membranes; type: biochemical; set-up: adenylyl cyclase activity stimulation over basal: dose or concentration left out as unconfirmed; details: for additive effect between CGRP and ADM on adenylyl cyclase: CGRP combined with ADM, BECRLR #8; for adenylyl cyclase activity stimulation over basal: HEK293 cells transiently transfected; for EC50 / activation of adenylyl cyclase activity over basal: stable clone BECRLR #8; for activation of adenylyl cyclase activity over basal: concentration-dependent
Source text: A bovine endothelial cell cDNA library was constructed using the k-Zap cDNA synthesis kit (Stratagene, La Jolla, Calif.) following the standard protocol. The human CGRP receptor c-DNA-coding sequence was used as a probe for the isolation of CRLR clones from an endothelial cell library. The probe was radiolabled with [α^32 P] ATP by the random priming method and used to screen approximately 1×10^6 plaque-forming units of the endothelial CRLR cDNA library. Nylon filters (Hybond ) containing plaque lifts were hybridized at 42° in 5× SSC (SSC is 150 mM NaCl and 15 mM sodium citrate), 5× Denhardt's solution, 0.1% SDS and 20% formamide followed by autography. Hybridizing clones (8) were plaque purified, and the pBluescript-containing insert was rescued from the purified×phage by in vivo excision using the Exassist/Solar system (Stratagene) and was sequenced in both strands by the dideoxynucleotide chain termination reaction. Two oligonucleotide primers were designed to amplify the open reading frame of the novel bovine CRLR cDNA. PCR amplification was carried out. A recombinant of the novel bovine CRLR was produced by transfection in HEK-293 cells. Transfection was achieved by LipofectAMINE procedure (Life Technologies, Gaithersburg, Md.). Stable cell lines expressing this receptor were selected with G418 and screened for CGRP and ADM-dependent activation of adenylyl cyclase.
as §2, §1
HEK293 cells transiently transfected with this clone responded to CGRP and ADM […] by stimulating adenylyl cyclase activity (60-80% over basal). This clone has been stably expressed in HEK293 cells using the LipofectAMINE procedure and analyzed for CGRP and ADM-mediated adenylyl cyclase activity. One of the positive clones (BECRLR #8) was fully characterized. […] To investigate further the functional results described in this study, a binding study using [^125 I]rADM and [^125 I]CGRP was performed to identify the presence of binding sites for both peptides in BE-CRLR (#8) cell membranes. [^125 I] CGRP binding was very little and the affinity or number of binding sites was difficult to determine. […] The specificity of [^125 I] rADM binding to BE-CRLR membranes was investigated by analyzing the displacement of this radioligand binding by ADM and related peptides. Human and rat ADM displaced [^125 I] rADM binding with high affinity (IC50 values 2-4 nM).

[10] = system: insulin secretion and blood glucose metabolism; details: cited from earlier work
[11] = biological target: T1, BECRLR (bovine calcitonin receptor-like receptor); assay: Competition binding, displacement of [125I] rADM from BECRLR membranes; details: BE-CRLR membranes; for IC50: [125I] rADM
Procedure: as §2
Saturation binding experiments were carried out using membranes prepared from BECRLR-293 cells pretreated in the absence or presence of ADM. The incubation mixture contained various concentrations of [^125 I] ADM (5 to 120 pM) and 40-60 μg of membrane protein in a final volume of 500 ul. Nonspecific binding was determined in the presence of 1 μM r ADM. After incubating for 30 min at 25° C., the reaction mixture was rapidly diluted with cold 0.9% NaCl and bound and free ligands were separated by filtration on glass fiber filters.
(§3) [^125 I] […] The specificity of [^125 I] rADM binding to BE-CRLR membranes was investigated by analyzing the displacement of this radioligand binding by ADM and related peptides.

[12] = infusion into humans and a variety of other species; cited from earlier work
[13] = system: insulin's effects on glucose metabolism; details: cited from earlier work
[14] = system: CRLR coexpressed with RAMP 1; details: CRLR with RAMP 1; cited from earlier work
[15] = biological target: T1, BECRLR (bovine calcitonin receptor-like receptor); assay: Inhibition of ADM-activated adenylyl cyclase activity (antagonism) in BECRLR-293 membranes; type: biochemical; details: BECRLR #8
Procedure: as §2, §3

rat tissues = details: [125I] rat ADM; cited from earlier work

T1 sequence (A6QP74 23-462): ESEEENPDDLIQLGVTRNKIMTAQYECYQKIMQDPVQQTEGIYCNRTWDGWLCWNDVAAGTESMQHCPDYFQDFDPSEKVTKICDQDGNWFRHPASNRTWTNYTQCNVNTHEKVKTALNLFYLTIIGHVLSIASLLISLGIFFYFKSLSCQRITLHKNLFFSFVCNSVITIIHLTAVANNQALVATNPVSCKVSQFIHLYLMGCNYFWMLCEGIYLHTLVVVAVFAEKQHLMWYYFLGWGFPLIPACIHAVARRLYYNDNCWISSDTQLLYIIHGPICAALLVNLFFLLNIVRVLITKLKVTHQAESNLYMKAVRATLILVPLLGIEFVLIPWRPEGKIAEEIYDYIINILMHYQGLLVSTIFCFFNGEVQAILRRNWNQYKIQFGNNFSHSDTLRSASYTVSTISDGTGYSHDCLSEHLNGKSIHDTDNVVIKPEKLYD
T1 sequence (O60895 43-175 partner): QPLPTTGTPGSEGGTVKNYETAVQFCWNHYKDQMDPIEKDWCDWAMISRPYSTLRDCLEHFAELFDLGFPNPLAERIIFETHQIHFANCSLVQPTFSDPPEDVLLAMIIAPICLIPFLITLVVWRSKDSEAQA

Q: Which insulin-stimulated glycogen synthesis [1] does the source give for `C=C(C)[C@]12C[C@@H](C)[C@@]34O[C@](Cc5ccccc5)(O[C@@H]1[C@@H]3C=C(COC(=O)Cc1ccc(O)c(OC)c1)C[C@]1(O)C(=O)C(C)=C[C@@H]41)O2` [resiniferatoxin] here?
A: inhibits insulin-stimulated glycogen synthesis

Q: With `COc1ccc(Cl)cc1C(=O)NCCc1ccc(S(=O)(=O)NC(=O)NC2CCCCC2)cc1` [glibenclamide] as the compound, how does the “inhibition of CGRP actions” value [2] read?
A: CGRP actions are inhibited by glibenclamide

Q: With “adrenomedullin (YRQSMNQGSRSTGCRFGTCTMQKLAHQIYQFTDKDKDGMAPRNKISPQGY; ends and bridges not checked; cysteine pairing not given here; UniProt P43145 94-143, looked up) [ADM, vasodilating peptide]” as the compound, how does the NO-cGMP system (NO-cGMP system) read?
A: activated the NO-cGMP system

Q: What about the “c-fos gene expression and AP-I DNA binding activity” value [3] of the same compound?
A: induces rapid and transient c-fos gene expression and AP-I DNA binding activity

Q: What about the “activation of adenylyl cyclase in vector transfected membranes” value [4] of the same compound?
A: did not respond

Q: What about the “response of expressed receptor” value [5] of the same compound?
A: responds to ADM

Q: And the hypotension [6]?
A: strong, long-lasting hypotension

Q: And the “affinity of BECRLR, overall conclusion” value ([7]; based on radioligand binding and functional assays)?
A: higher affinity to ADM

Q: What about the “intracellular Ca++” value ([8]; through the activation of phospholipase C) of the same compound?
A: induces a rise in intracellular Ca^++

Q: What about the “accumulation of intracellular cAMP” value ([8]; vascular SMC, and bovine EC) of the same compound?
A: stimulates the accumulation of intracellular cAMP

Q: What about the “additive effect between CGRP and ADM on adenylyl cyclase” value [9] of the same compound?
A: no additive effect

Q: And the “adenylyl cyclase activity stimulation over basal” value [9]?
A: 60-80 % over basal

Q: What about the EC50 [9] of the same compound?
A: 4.3 nM

Q: What about the “activation of adenylyl cyclase activity over basal” value [9] of the same compound?
A: ~ 300 % over basal

Q: What about the “insulin secretion and blood glucose metabolism” value [10] of the same compound?
A: down-regulate insulin secretion and blood glucose metabolism

Q: For “rat ADM: rat adrenomedullin (YRQSMNQGSRSTGCRFGTCTMQKLAHQIYQFTDKDKDGMAPRNKISPQGY; ends and bridges not checked; cysteine pairing not given here; UniProt P43145 94-143, looked up)”, which IC50 [11] is on record?
A: 2 to 4 nM

Q: For `COc1cc(CNC(=O)CCCC/C=C/C(C)C)ccc1O` [capsaicin], which insulin-stimulated glycogen synthesis [1] is on record?
A: inhibits insulin-stimulated glycogen synthesis

Q: Which “activation of adenylyl cyclase in vector transfected membranes” value [4] does the source give for Calcitonin gene-related peptide [CGRP] here?
A: did not respond

Q: And the “displacement of [125I] rADM binding, potency in words” value ([11]; [125I] rADM displacement)?
A: less potent

Q: And the “vasodilation, blood flow, blood pressure, heart rate” value [12]?
A: vasodilation, increased regional blood flow, hypotension and tachycardia

Q: And the “glucose infusion rate needed to maintain plasma euglycemia” value ([13]; glucose clamp in rats, constant insulin infusion rate)?
A: rapid and sustained reduction in the glucose infusion rate

Q: What about the “insulin inhibition of hepatic glucose production” value ([13]; rat, in vivo) of the same compound?
A: effective in blocking insulin inhibition of hepatic glucose production

Q: What about the “response of expressed receptor” value [14] of the same compound?
A: responds to CGRP

Q: What about the “additive effect between CGRP and ADM on adenylyl cyclase” value [9] of the same compound?
A: no additive effect

Q: What about the “adenylyl cyclase activity stimulation over basal” value [9] of the same compound?
A: 60-80 % over basal

Q: And the EC50 [9]?
A: 2.8 nM

Q: And the “activation of adenylyl cyclase activity over basal” value [9]?
A: ~ 300 % over basal

Q: For “ADM(26-52): ADM receptor antagonist, fragment 26-52 of adrenomedullin (LAHQIYQFTDKDKDNVAPRSKISPQGY; ends and bridges not checked; UniProt P35318 120-146, looked up, fragment)”, which IC50 [15] is on record?
A: > 10000 nM

Q: Which “density of ADM binding sites among rat tissues” value (rat tissues) does the source give for “[^125 I]rADM: radioiodinated rat adrenomedullin, radioligand (YRQSMNQGSRSTGCRFGTCTMQKLAHQIYQFTDKDKDGMAPRNKISPQGY; ends and bridges not checked; also: radioiodinated (125I), position not given here; UniProt P43145 94-143, looked up)” here?
A: lung had the highest density of ADM binding sites

Q: What about the Kd ([7]; Scatchard transformation, single class of high affinity binding site, read-out: dissociation constant (Kd)) of the same compound?
A: 0.25 nM

Q: What about the “specific binding as percent of total binding” value ([7]; [125I]rADM, BE-CRLR (#8) cell membranes) of the same compound?
A: 80-90 % of the total binding

Q: With Human adrenomedullin [Human ADM] as the compound, how does the IC50 [11] read?
A: 2 to 4 nM

Q: For “ADM(22-52): ADM receptor antagonist, fragment 22-52 of adrenomedullin”, which IC50 [15] is on record?
A: 110 nM

Q: And the “displacement potency relative to ADM (fold less potent than ADM)” value ([11]; [125I] rADM displacement)?
A: approximately 15 fold
